Data: publication PMC10017709, “Structural basis of selective cannabinoid CB2 receptor activation” (Nature Communications, 2023)
Values joined by “and” are separate entries in the source; they are usually repeats but may differ in a detail not shown here. Equal values may be shown once.

Legend:
[1] = target: CB2R-I110^3.29L (Homo sapiens, UniProt P34972, I110L); experiment: [35S]GTPγS assay, CB2R I110L mutant; assay type: biochemical; details: for [35S]GTPγS binding: I1103.29L, individual replicates
CB2R-I110^3.29L, sequence (P34972 whole entry I110L): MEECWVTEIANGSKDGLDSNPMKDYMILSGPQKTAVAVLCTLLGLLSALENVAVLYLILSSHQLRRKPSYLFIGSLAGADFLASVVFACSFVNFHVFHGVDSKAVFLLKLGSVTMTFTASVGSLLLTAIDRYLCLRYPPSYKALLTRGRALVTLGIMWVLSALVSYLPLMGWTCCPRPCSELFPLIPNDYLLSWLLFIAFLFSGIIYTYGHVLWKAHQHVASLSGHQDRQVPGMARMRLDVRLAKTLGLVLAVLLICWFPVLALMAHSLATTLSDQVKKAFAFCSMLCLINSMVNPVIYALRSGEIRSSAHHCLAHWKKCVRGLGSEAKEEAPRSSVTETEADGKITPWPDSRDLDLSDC

[2] = target: T1, hCB2R (Homo sapiens, UniProt P34972); experiment: [3H]RO6957022 displacement assay; assay type: binding; details: for percentage specific [3H]RO6957022 binding (displacement): individual replicates
T1 construct: host or cells: CHO-K1 (CHOK1_hCB2bgal, PathHunter), membranes
T1 sequence (P34972 whole entry): as the sequence (P34972 whole entry I110L) above, with L110I counted along it

[3] = target: T1, hCB2R; experiment: [3H]RO6957022 competition association assay; assay type: binding; details: for percentage specific [3H]RO6957022 binding (competition association): individual replicates
[4] = target: T2, CB1R D266ECL2E (Homo sapiens, UniProt P21554, D266E); experiment: [3H]CP55,940 displacement assay, CB1R D266E mutant; assay type: binding
T2 construct: The WT CB1R and CB2R genes were subcloned into vector pcDNA3.1; HA signal peptide (N); expressed in transfected cells; host or cells: HEK293T (transient, membrane homogenates)
T2 sequence (P21554 whole entry D266E): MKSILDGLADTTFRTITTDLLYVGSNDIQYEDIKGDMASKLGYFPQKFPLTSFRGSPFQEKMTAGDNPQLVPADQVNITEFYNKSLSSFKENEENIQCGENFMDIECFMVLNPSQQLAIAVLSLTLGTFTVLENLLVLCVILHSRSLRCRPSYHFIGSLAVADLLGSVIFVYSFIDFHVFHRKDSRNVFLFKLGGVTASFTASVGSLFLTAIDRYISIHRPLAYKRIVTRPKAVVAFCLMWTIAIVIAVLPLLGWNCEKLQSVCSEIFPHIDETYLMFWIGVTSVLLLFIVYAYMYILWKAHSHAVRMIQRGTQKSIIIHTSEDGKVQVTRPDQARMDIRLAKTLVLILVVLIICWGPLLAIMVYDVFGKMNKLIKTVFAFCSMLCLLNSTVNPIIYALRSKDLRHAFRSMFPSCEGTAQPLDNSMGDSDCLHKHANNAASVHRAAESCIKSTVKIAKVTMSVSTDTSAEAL

[5] = target: CB2R-Quadruple^TM1,7 (Homo sapiens, UniProt P34972, C40S/K279T/K33Q/V36I); experiment: [35S]GTPγS assay, CB2R quadruple mutant; assay type: biochemical; details: for [35S]GTPγS binding: QuadrupleTM1,7, individual replicates
CB2R-Quadruple^TM1,7, sequence (P34972 whole entry K33Q/V36I/C40S/K279T): as the sequence (P34972 whole entry I110L) above, with K33Q, V36I, C40S, L110I, K279T counted along it
Method: In short, transient HEK293T membrane homogenates (10 µg/well) were diluted in assay buffer (50 mM Tris-HCl (pH 7.4), 5 mM MgCl2, 150 mM NaCl, 1 mM EDTA, 0.05% BSA (w/v) and 1 mM DTT, freshly prepared every day) and were pretreated with 10 µg saponin and 1 µM GDP. For endocannabinoid samples, the membranes were additionally pretreated for 30 min with 50 µM PMSF before agonist addition. […] Basal receptor activity was determined in the presence of vehicle only (0.2% DMSO/acetonitrile). […] Filtration was performed, and filter-bound radioactivity was determined as described under [^3H]RO6957022 Competition Association Assays except for using ice-cold 50 mM Tris-HCl (pH 7.4), 5 mM MgCl2 buffer.

[6] = target: CB2R-L182^ECL2I (Homo sapiens, UniProt P34972, L182I); experiment: [35S]GTPγS assay, CB2R L182I mutant; assay type: biochemical; details: L182I mutant
CB2R-L182^ECL2I, sequence (P34972 whole entry L182I): as the sequence (P34972 whole entry I110L) above, with L110I, L182I counted along it

[7] = target: CB1R I267ECL2L (Homo sapiens, UniProt P21554, I267L); experiment: [35S]GTPγS assay, CB1R I267L mutant; assay type: biochemical; details: CB1R I267ECL2L; individual replicates
CB1R I267ECL2L, sequence (P21554 whole entry I267L): as the sequence (P21554 whole entry D266E) above, with E266D, I267L counted along it

## CC(C)CN1C(=O)CN(Cc2ccc(-c3ccc(F)c(CNC4CCOCC4)n3)cc2)C1=O [LEI-102, 1-(4-(5-fluoro-6-(((tetrahydro-2H-pyran-4-yl)amino)methyl)pyridin-2-yl)benzyl)-3-isobutylimidazolidine-2,4-dione]
[1]; I110L mutant, HEK293T membranes
  EC50: 15.8 nM
[1]; I110L mutant, at 10 µM compared to WT
  Emax (%): 91 ± 3%
[1]; log [ligand] (M) -5
  [35S]GTPγS binding: 91.04 percentage of WT and 85.60 percentage of WT and 97.60 percentage of WT
[1]; log [ligand] (M) -6
  [35S]GTPγS binding: 71.11 percentage of WT and 90.00 percentage of WT and 68.00 percentage of WT
[1]; log [ligand] (M) -7
  [35S]GTPγS binding: 49.89 percentage of WT and 105.60 percentage of WT and 64.50 percentage of WT
[1]; log [ligand] (M) -8
  [35S]GTPγS binding: 38.52 percentage of WT and 44.70 percentage of WT and 17.20 percentage of WT
[1]; log [ligand] (M) -9
  [35S]GTPγS binding: 9.93 percentage of WT and -16.00 percentage of WT and -7.20 percentage of WT
[1]; log [ligand] (M) -10
  [35S]GTPγS binding: -2.60 percentage of WT and -2.20 percentage of WT and -32.20 percentage of WT
[2]; CHOK1_hCB2bgal membranes, 10 °C
  Ki: 9.7 nM
[2]; log [agonist] (M) -5
  percentage specific [3H]RO6957022 binding (displacement): -32.33% and 4.32% and 0.17%
[2]; log [agonist] (M) -6
  percentage specific [3H]RO6957022 binding (displacement): -14.04% and 1.26% and 2.78%
[2]; log [agonist] (M) -7
  percentage specific [3H]RO6957022 binding (displacement): 18.14% and 30.43% and 22.20%
[2]; log [agonist] (M) -8
  percentage specific [3H]RO6957022 binding (displacement): 86.67% and 64.68% and 56.33%
[2]; log [agonist] (M) -9
  percentage specific [3H]RO6957022 binding (displacement): 136.04% and 85.34% and 92.04%
[2]; log [agonist] (M) -10
  percentage specific [3H]RO6957022 binding (displacement): 150.08% and 77.03% and 85.93%
[3]; KD = koff/kon, read-out: Kinetic KD
  Kd: 16.5 nM
[3]; RT = 1/(60 ∙ koff)
  residence time: 16 min
[3]; Time 1 min
  percentage specific [3H]RO6957022 binding (competition association): 5.83% and -3.44% and 7.40%
[3]; Time 3 min
  percentage specific [3H]RO6957022 binding (competition association): 23.25% and 21.50% and 9.87%
[3]; Time 5 min
  percentage specific [3H]RO6957022 binding (competition association): 29.56% and 33.35% and 22.10%
[3]; Time 7 min
  percentage specific [3H]RO6957022 binding (competition association): 39.12% and 26.72% and 31.06%
[3]; Time 10 min
  percentage specific [3H]RO6957022 binding (competition association): 41.53% and 33.11% and 35.03%
[3]; Time 20 min
  percentage specific [3H]RO6957022 binding (competition association): 47.20% and 49.02% and 32.99%
[3]; Time 30 min
  percentage specific [3H]RO6957022 binding (competition association): 52.67% and 57.37% and 51.93%
[3]; Time 45 min
  percentage specific [3H]RO6957022 binding (competition association): 51.61% and 58.35% and 49.36%
[3]; Time 60 min
  percentage specific [3H]RO6957022 binding (competition association): 51.74% and 74.63% and 45.92%
[3]; Time 90 min
  percentage specific [3H]RO6957022 binding (competition association): 53.57% and 66.52% and 52.04%
[3]; Time 120 min
  percentage specific [3H]RO6957022 binding (competition association): 61.01% and 70.76% and 73.93%
[3]; at 1 µM agonist, ET = 1/(kon ∙ 1 × 10-6)
  ET (engagement time): 16.0 ± 2.82 s
[4]; CB1R D266E, 10 µM compound
  Displacement (%) of [3H]CP55,940: 38 ± 10%
[4]; CB1R D266ECL2E, 10 µM ligand, replicates 1-3
  percentage specific [3H]CP55,940 binding: 65.03 percentage and 44.89 percentage and 77.53 percentage
[5]; Quadruple TM1,7 mutant, <5 when curve fit not finished
  EC50: 631 nM
[5]; Quadruple TM1,7 mutant, at 10 µM compared to WT
  Emax (%): 27 ± 5%
[5]; log [ligand] (M) -5
  [35S]GTPγS binding: 19.02 percentage of WT and 26.25 percentage of WT and 35.32 percentage of WT
[5]; log [ligand] (M) -6
  [35S]GTPγS binding: 18.24 percentage of WT and 27.33 percentage of WT and 15.57 percentage of WT
[5]; log [ligand] (M) -7
  [35S]GTPγS binding: -20.33 percentage of WT and 5.34 percentage of WT
[5]; log [ligand] (M) -8
  [35S]GTPγS binding: -17.90 percentage of WT and -15.60 percentage of WT and -7.82 percentage of WT
[5]; log [ligand] (M) -9
  [35S]GTPγS binding: -5.85 percentage of WT and 6.13 percentage of WT and -3.78 percentage of WT
[6]; <5 when curve fit not finished
  EC50: 39.8 nM
[6]; at 10 µM compared to WT
  Emax (%): 11 ± 8%
[7]
  G protein activation, fold over its basal: 1.03 fold over its basal and 1.063 fold over its basal and 1.016 fold over its basal
